From paper PMC10141604, “Small-Molecule Inhibition of Androgen Receptor Dimerization as a Strategy against Prostate Cancer” (ACS Central Science, 2023)

Tests used:
[1] = system: PSA, CDC20, CENPF, MKI67 mRNA in LNCaP cells; experiment: Quantitative PCR in LNCaP cells; type: cell-based; conditions: for mRNA expression of PSA: LNCaP, 0.1, 1 μM, 5 nM DHT; for mRNA expressions of CDC20, CENPF and MKI67: LNCaP, compared with DHT
Protocol: Quantitative PCR (qPCR) for PSA, CDC20, CENPF, MKI67
LNCaP cells were cultured in medium containing 5% CSS in six -well plates and treated […]
where 5 nM DHT and DMSO were separately used in parallel as controls. After 48 h incubation, EZ-10 DNAaway RNA Mini -Preps Kit (Sangon Biotech) and Hifair® Ⅲ 1st Strand cDNA Synthesis SuperMix for qPCR (YEASEN) were employed for mRNA extraction and cDNA preparation, respectively. Then, the PCR SYBR Green Master Mix (YEASEN) was employed to amplify cDNA using the prime pairs in Table S5 . […]

[2] = system: subcutaneous xenografts of LNCaP cells; experiment: LNCaP mouse xenograft study, intratumor injection; type: in vivo; conditions: 2.5 mg/kg/week; for tumor growth inhibition (TGI): LNCaP xenograft in CB17 SCID mice; for tumor volume and weight: versus vehicle
Protocol: The animal protocols were in accordance with the guidelines of the Animal Welfare Council of China, and were performed by KCBIO company (Chengdu, China). All animal use and studies were performed in compliance with all relevant ethical regulations, and were approved by the Institutional Animal Care and Use Committee (IACUC) at Kangcheng Biotechnology Co., Ltd, Sichuan, China (IACUC-202010-m-001). In brief, male CB17 SCID mice (6-8 weeks old) were housed at a constant room temperature and fed a standard rodent diet and allowed free access to water. LNCaP cells (1 × 107) suspended in 0.1 ml PBS were injected subcutaneously into the right flank of eac h CB17 SCID mice. Once tumor size reached an average tumor volume of 110 mm 3, the mice were randomized into three groups with 6 mice per group, and then intratumor injection […]
The tumor volumes were estimated by measuring length (L) and width (W) and […]
calculating volume (V= 0.5 × L × W2). Finally, the mice were sacrificed and the tumors were harvested for hematoxylin and eosin (H&E) staining. […]
Addgene), 24 ng pGL4.36[luc2P MMTV Hygro] […]
For the antagonistic models, 10 nM /well progesterone for PC3 cells , 1 nM/well dexamethasone for HeLa, and 5 nM/well aldosterone for HEK293T cells were added to stimulate the cells. Meanwhile, each cell line was treated with a series concentration of compounds (0.4, 2, and 10 μM). For the agonistic models, the cells were directly treated with the compounds without any hormones. […]
Luciferase system (#E1910, Promega).
Cell Cycle and Apoptosis for LNCaP cells […]
48 h incubation by Cell Cycle Staining Kit (#CCS012, MULTI SCIENCES) using […]

[3] = system: secreted PSA from LNCaP cells; experiment: Secreted prostate-specific antigen (PSA) assay; type: cell-based; conditions: for IC50: Homo sapiens, read-out: IC50, PSA levels secreted in the cellular media
Protocol: Secreted Prostate-Specific Antigen (PSA) Assay
After the AR transcriptional activity assay was completed, 300 μl of the media
supernatant including the secreted PSA was measured using […]® 2000 XPi
Immunoassay System (Siemens Ltd., Erlangen, Germany). […]

[4] = system: LNCaP cells; experiment: Clonogenic (colony forming) assay, LNCaP; type: cell-based; conditions: 2 and 20 μM, 16-18 days
Protocol: 1.5× 10^3 cells/well of LNCaP or 22RV1 were seeded into a 6-well plate. After 1 day
incubation, the medium of each well was removed and washed thrice using PBS. […]

| Compound | mRNA expression of PSA [1] | mRNA expressions of CDC20, CENPF and MKI67 [1] | tumor growth inhibition (TGI) [2] | tumor volume and weight [2] | inhibition of the secretion of PSA [3] | IC50 [3] | colony formation of LNCaP cells [4] |
| --- | --- | --- | --- | --- | --- | --- | --- |
| CC(=O)Cc1nsc(NC(=O)c2cc(-c3cccc(C(F)(F)F)c3)oc2C)n1 [Compound M17-B15] | inhibited | significantly reduces | 83.59% | significantly inhibited | dose-dependent | 0.35 µM | significant inhibitory activities |
| CNC(=O)c1ccc(N2C(=S)N(c3ccc(C#N)c(C(F)(F)F)c3)C(=O)C2(C)C)cc1F [Enz, enzalutamide, reference compound] | inhibited | significantly reduces | 51.35% | significantly inhibited |  | 0.18 µM | significant inhibitory activities |
